Assay results reported in PubChem BioAssay AID248 (DTP/NCI, 2004).
Several values for one entry are separate records, joined by “and”; a condition that tells them apart may be missing. Identical values can stand only once. Toxic doses and inconclusive results are not listed. No stated cut-off is given here; in the data, active means T/C of 150% or more; inactive means T/C below 125%.

System: L1210 leukemia ip in BDF1 mice, survival T/C
Experiment: NCI In Vivo Anticancer Drug Screen. Data for tumor model L1210 Leukemia (intraperitoneal) in B6D2F1 (BDF1) mice
Settings: endpoint: mean survival time, higher = longer survival
How it was run: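 Value reflects the ratio of survival in compound-treated mice to survival in vehicle-treated controls, with both groups carrying the same transplanted tumor.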

[1] = dose: 100.0 mg/kg/injection, schedule: Q04DX003 (ip), vehicle: Klucel (hydroxypropylcellulose) (HPC)
[2] = dose: 200.0 mg/kg/injection, schedule: Q04DX003 (ip), vehicle: Klucel (hydroxypropylcellulose) (HPC)
[3] = dose: 400.0 mg/kg/injection, schedule: Q04DX003 (ip), vehicle: Klucel (hydroxypropylcellulose) (HPC)
[4] = dose: 100.0 mg/kg/injection, schedule: Q01DX001 (ip), vehicle: carboxymethylcellulose (CMC)
[5] = dose: 200.0 mg/kg/injection, schedule: Q01DX001 (ip), vehicle: carboxymethylcellulose (CMC)
[6] = dose: 400.0 mg/kg/injection, schedule: Q01DX001 (ip), vehicle: carboxymethylcellulose (CMC)
[7] = dose: 100.0 mg/kg/injection, schedule: Q01DX009 (ip), vehicle: Klucel (hydroxypropylcellulose) (HPC)
[8] = dose: 200.0 mg/kg/injection, schedule: Q01DX009 (ip), vehicle: Klucel (hydroxypropylcellulose) (HPC)
[9] = dose: 25.0 mg/kg/injection, schedule: Q01DX009 (ip), vehicle: saline with Tween-80
[10] = dose: 50.0 mg/kg/injection, schedule: Q01DX009 (ip), vehicle: saline with Tween-80
[11] = dose: 100.0 mg/kg/injection, schedule: Q01DX009 (ip), vehicle: saline with Tween-80
[12] = dose: 100.0 mg/kg/injection, schedule: Q04DX003 (ip), vehicle: saline with Tween-80
[13] = dose: 200.0 mg/kg/injection, schedule: Q04DX003 (ip), vehicle: saline with Tween-80
[14] = dose: 400.0 mg/kg/injection, schedule: Q04DX003 (ip), vehicle: saline with Tween-80
[15] = dose: 6.25 mg/kg/injection, schedule: Q01DX009 (ip), vehicle: Klucel (hydroxypropylcellulose) (HPC)
[16] = dose: 12.5 mg/kg/injection, schedule: Q01DX009 (ip), vehicle: Klucel (hydroxypropylcellulose) (HPC)
[17] = dose: 200.0 mg/kg/injection, schedule: Q01DX009 (ip), vehicle: saline with Tween-80
[18] = dose: 100.0 mg/kg/injection, schedule: Q01DX001 (ip), vehicle: saline
[19] = dose: 200.0 mg/kg/injection, schedule: Q01DX001 (ip), vehicle: saline
[20] = dose: 400.0 mg/kg/injection, schedule: Q01DX001 (ip), vehicle: saline
[21] = dose: 400.0 mg/kg/injection, schedule: Q01DX009 (ip), vehicle: saline with Tween-80
[22] = dose: 200.0 mg/kg/injection, schedule: Q04DX003 (ip), vehicle: acetone
[23] = dose: 400.0 mg/kg/injection, schedule: Q04DX003 (ip), vehicle: acetone

Measured: T/C

C#CCOC(=O)c1ccc(C(=O)OCC#C)cc1
inactive: dose: 100.0 mg/kg/injection, schedule: Q01DX009 (ip), vehicle: saline sonified 106 % of control | [1] 100 % of control | dose: 200.0 mg/kg/injection, schedule: Q01DX009 (ip), vehicle: saline sonified 96 % of control | [2] 106 % of control | [3] 90 % of control

O=C1CCCC2CCCC12 (stereo unspecified)
inactive: [4] 93 % of control | [5] 95 % of control | [6] 93 % of control

CC(=O)Nc1ccc(C(C)C)cc1
inactive: [7] 103 % of control | [8] 95 % of control | dose: 400.0 mg/kg/injection, schedule: Q01DX009 (ip), vehicle: Klucel (hydroxypropylcellulose) (HPC) 94 % of control

Cc1nccnc1N/N=C\c1ccc(N(CCCl)CCCl)cc1
inactive: [4] 104 % of control | [5] 96 % of control | [6] 93 % of control

Cc1cc(Cl)c(OC(=O)Nc2ccccc2F)cc1C
inactive: [9] 106 % of control | [10] 114 % of control | [11] 103 % of control and 105 % of control

O=C(NCCF)NC1C=CCCC1 (stereo unspecified)
inactive: dose: 75.0 mg/kg/injection, schedule: Q01DX001 (ip), vehicle: other 100 % of control | dose: 150.0 mg/kg/injection, schedule: Q01DX001 (ip), vehicle: other 95 % of control | dose: 300.0 mg/kg/injection, schedule: Q01DX001 (ip), vehicle: other 94 % of control

CC(C)(C)NC(=O)C1C2CC3OC(=O)C1C3C2 (stereo unspecified)
inactive: [12] 98 % of control | [13] 101 % of control and 90 % of control | [14] 101 % of control and 98 % of control

O=[As](O)(O)Cc1ccc(F)cc1
inactive: [15] 96 % of control | [16] 105 % of control | dose: 25.0 mg/kg/injection, schedule: Q01DX009 (ip), vehicle: Klucel (hydroxypropylcellulose) (HPC) 108 % of control

O=c1cc(Sc2ccccc2)[nH]c(=O)[nH]1
inactive: [1] 96 % of control | [2] 105 % of control | [3] 102 % of control

NC(N)=Nc1ccc(C(=O)O)cc1
inactive: [11] 107 % of control | [17] 103 % of control

NC(N)=NNC(=O)C(=O)O
inactive: [12] 95 % of control | [13] 91 % of control | [14] 93 % of control

O=C(O)c1ccc(Cl)cc1Cl
inactive: dose: 100.0 mg/kg/injection, schedule: Q04DX002 (ip), vehicle: gum acacia 88 % of control | dose: 200.0 mg/kg/injection, schedule: Q04DX002 (ip), vehicle: gum acacia 98 % of control | dose: 400.0 mg/kg/injection, schedule: Q04DX002 (ip), vehicle: gum acacia 100 % of control

Nc1ncnc2c1ncn2C1OC(CO)C(NC(=O)C(CCCCNC(=O)OCc2ccccc2)NC(=O)OCc2ccccc2)C1O (stereo unspecified)
inactive: [18] 102 % of control | [19] 100 % of control | [20] 100 % of control

CCOC(=O)C1=Cc2ccccc2OC1
inactive: dose: 75.0 mg/kg/injection, schedule: Q01DX001 (ip), vehicle: saline 94 % of control | dose: 150.0 mg/kg/injection, schedule: Q01DX001 (ip), vehicle: saline 96 % of control | dose: 300.0 mg/kg/injection, schedule: Q01DX001 (ip), vehicle: saline 91 % of control

CC(=O)OC1CCC2(C)C(=CC=C3C2CCC2(C)C3CCC2C(C)/C=C/C(C)C(C)C)C1 (stereo unspecified)
inactive: dose: 100.0 mg/kg/injection, schedule: Q04DX002 (sc), vehicle: saline with Tween-80 97 % of control | [1] 93 % of control | dose: 200.0 mg/kg/injection, schedule: Q04DX002 (sc), vehicle: saline with Tween-80 97 % of control | [2] 96 % of control | dose: 400.0 mg/kg/injection, schedule: Q04DX002 (sc), vehicle: saline with Tween-80 97 % of control | [3] 93 % of control

CC1C(OC(=O)Cc2ccccc2)=CCC2C1(C)CCC1C2(C)CCC2(C)C3CC(C)(C)CCC3(C)CCC12C (stereo unspecified)
inactive: [18] 98 % of control | [19] 104 % of control | [20] 104 % of control

C=CCNCC=C
inactive: dose: 50.0 mg/kg/injection, schedule: Q01DX001 (ip), vehicle: saline 96 % of control | [18] 96 % of control | [19] 98 % of control

C=CC/C=C/CCC
inactive: dose: 50.0 mg/kg/injection, schedule: Q01DX001 (ip), vehicle: carboxymethylcellulose (CMC) 88 % of control | [5] 88 % of control | [6] 90 % of control

O=C(N=c1scc(-c2ccc(Br)cc2)n1-c1cccc2ccccc12)c1ccccc1F
inactive: [9] 89 % of control | [10] 87 % of control | [11] 93 % of control

NNC(=S)NC1CCCCC1
inactive: dose: 25.0 mg/kg/injection, schedule: Q04DX003 (ip), vehicle: Klucel (hydroxypropylcellulose) (HPC) 100 % of control | dose: 50.0 mg/kg/injection, schedule: Q04DX003 (ip), vehicle: Klucel (hydroxypropylcellulose) (HPC) 95 % of control | [1] 95 % of control and 90 % of control | [12] 96 % of control | [13] 96 % of control | [14] 96 % of control

Clc1nc(Cl)c(Cl)c(C(Cl)(Cl)Cl)n1
inactive: [9] 101 % of control | [10] 92 % of control | [11] 87 % of control | [17] 86 % of control

Cc1ccc2c(c1)C(=O)CCC2
inactive: dose: 177.0 mg/kg/injection, schedule: Q01DX001 (ip), vehicle: saline 94 % of control | [19] 95 % of control | dose: 266.0 mg/kg/injection, schedule: Q01DX001 (ip), vehicle: saline 94 % of control | [20] 94 % of control and 95 % of control | dose: 600.0 mg/kg/injection, schedule: Q01DX001 (ip), vehicle: saline 96 % of control

COC(=O)/C=C1\C(C(=O)OC)=Cc2ccccc2N1C
inactive: [11] 97 % of control | [12] 98 % of control | [17] 91 % of control | [13] 98 % of control | [21] 94 % of control | [14] 96 % of control

O=C(NC(C(O)CO)C(OC(=O)c1ccccc1)C(O)CO)c1ccccc1 (stereo unspecified)
inactive: [11] 105 % of control | [17] 94 % of control | [21] 94 % of control

COc1ccc(Cc2ccc(OC)c(OC)c2)cc1OC
inactive: [22] 124 % of control | [23] 100 % of control

O=C1CC2CC1C1CC(Br)C(Br)C21 (stereo unspecified)
inactive: dose: 100.0 mg/kg/injection, schedule: Q04DX003 (ip), vehicle: acetone 97 % of control | [22] 97 % of control | [23] 92 % of control

Cc1ccc(C(=O)[O][Hg][CH2]C2COC([CH2][Hg][O]C(=O)c3ccc(C)cc3)CO2)cc1 (stereo unspecified)
inactive: dose: 3.12 mg/kg/injection, schedule: Q01DX009 (ip), vehicle: Klucel (hydroxypropylcellulose) (HPC) 93 % of control | [15] 93 % of control | dose: 6.25 mg/kg/injection, schedule: Q01DX009 (ip), vehicle: saline with Tween-80 113 % of control | [16] 94 % of control | dose: 12.5 mg/kg/injection, schedule: Q01DX009 (ip), vehicle: saline with Tween-80 100 % of control | [9] 105 % of control | dose: 25.0 mg/kg/injection, schedule: Q04DX003 (ip), vehicle: other 92 % of control | dose: 50.0 mg/kg/injection, schedule: Q04DX003 (ip), vehicle: other 90 % of control | dose: 100.0 mg/kg/injection, schedule: Q04DX003 (ip), vehicle: other 95 % of control

CCCOCC(O)CNCCN (stereo unspecified)
inactive: [7] 98 % of control | [8] 92 % of control

CCN(CC)CC(=O)NCC(CCCN(C)C)(CCCN(C)C)c1cccc2ccccc12
inactive: dose: 12.5 mg/kg/injection, schedule: Q01DX009 (ip), vehicle: saline 96 % of control | dose: 25.0 mg/kg/injection, schedule: Q01DX009 (ip), vehicle: saline 91 % of control | dose: 25.0 mg/kg/injection, schedule: Q04DX002 (ip), vehicle: saline 93 % of control | dose: 50.0 mg/kg/injection, schedule: Q01DX009 (ip), vehicle: saline 86 % of control | dose: 50.0 mg/kg/injection, schedule: Q04DX002 (ip), vehicle: saline 100 % of control
